The nature of this series: Experimental gradient RP-LC retention time of peptides (LC-ESI-MS/MS). Format: physicochemical. Here is the method: The chromatographic analysis was performed on C-18 analytical column: XTerra MS C18 3.5 μm (2.1 × 100 mm) column (Waters, Milford, MA, USA).
The mobile phase consisted of two solvents (A and B) mixed on-line. Solvent A was 0.1% aqueous (water was MS-grade) solution of trifluoroacetic acid (TFA) (Sigma-Aldrich, Steinheim, Germany) and solvent B was acetonitrile (ACN) (MS-grade, Sigma-Aldrich, Steinheim, Germany) containing 0.1% TFA. The applied linear gradient time was 90 min, from 0% B to 60% B. The flow rate was 200 μL/min. The injection volume was 10 μL. The LC-MS apparatus was equipped with thermostated column oven and surveyor autosampler controlled at 20°C (Thermo Finnigan, San Jose, CA, USA), a quaternary gradient Surveyor MS pump (Thermo Finnigan, San Jose, CA, USA) with a diode array detection (DAD) system, and LTQ linear ion trap MS system with ESI ion source controlled by Xcalibur software 1.4 (Thermo Finnigan, San Jose, CA, USA).
The MS/MS analysis was performed on Finnigan LTQ instrument (Thermo Finnigan, San Jose, CA, USA). Mass spectra were generated in positive ion mode under constant instrumental conditions: source voltage 4.62 kV, capillary voltage 40.97 V, sheath gas flow rate 39.99 (arbitrary units), auxiliary gas flow 10 (arbitrary units), sweep gas flow 0.95 (arbitrary units), capillary temperature 219.96°C, and tube lens voltage 250.43 V. MS/MS spectra, obtained by CID (collision-induced dissociation) in the linear ion trap, were performed with an isolation width 3Da (m/z); the activation amplitude was 35% of ejection RF amplitude that corresponds to 1.58 V.
The experimental retention times of the peptides (tR exp) were determined at peak intensity maximum. The m/z values measured manually for the most intense peaks in acquired MS/MS spectra were automatically searched against the protein database (*fasta) using the Sequest Algorithm, incorporated into Bioworks 3.0 (Thermo Finningan, San Jose, CA, USA). The *fasta format for each protein was downloaded from Expasy (http://www.expasy.org/sprot/).

[1] abbreviates: experimental gradient HPLC retention time (LC-ESI-MS/MS), Table 4 test peptides.
[2] abbreviates: Table 5, Bacillus subtilis proteome peptides, one peptide, Xcorr below 1.5, gradient RP-LC, XTerra MS C18, 0-60% ACN with 0.1% TFA in 90 min, 200 μL/min, 20°C, ESI-MS/MS.
The mark [3] stands for this setting: Table 1, model peptides, gradient RP-LC, XTerra MS C18 3.5 μm 2.1 × 100 mm, 0-60% ACN with 0.1% TFA, linear 90 min, 200 μL/min, 20°C, ESI-MS/MS, at peak intensity maximum.
[4] abbreviates: Table 2, test peptides from model proteins, gradient RP-LC, XTerra MS C18, 0-60% ACN with 0.1% TFA in 90 min, 200 μL/min, 20°C, ESI-MS/MS.

With NLLFAAR, the tR exp under setting [1] came to 14.27 min. The substance IGLLIFLP yielded a tR exp under setting [2] of 93.97 min.

The substance INIMSAR had a tR exp under setting [1] of 14.23 min. As to AAEMAVARQNEQKVKK, under setting [1], the tR exp is given as 29.44 min. Same read-out and setting: the figure for HSSDEEPFSALAFK is 33.16 min. Turning to “VHTECCHGDLLECADDR [model peptide from tryptic digest of model protein 6]”, the tR exp under setting [3] turned out to be 22.86 min. Under setting [1], LNSLDSR came in with a tR exp of 14.29 min. LTELQVRHII gave a tR exp under setting [2] of 48.06 min.

The substance EVMIEGVLSVLEGQAPK gave a tR exp under setting [1] of 29.51 min. Still for that read-out and setting: with IDIALESKK the figure was 18.04 min. With HGGSLSAPAIH, the tR exp under setting [2] is 97.03 min. As for SGSIESIDVSLTDLR, the tR exp under setting [1] was 33.05 min. On to “QHMDSSTSAASSSNYCNQMMK [model peptide from tryptic digest of model protein 7]”, for which the tR exp under setting [3] amounted to 20.46 min. With NRAVGFISFVI, the tR exp under setting [2] turned out to be 58.59 min. For PIITVAKEAWPTL, under setting [2], the tR exp stood at 83.17 min. As for IDFPTNITMD, the tR exp under setting [2] was 96.80 min. Under setting [1], IDNLSYYIEQEYK showed a tR exp of 30.89 min. The same measure, in the same setting: the figure for GNQVSENLQQAAR is 20.52 min; for LEIASEFGVNLGADTTSR it is 33.12 min. On to “AAFTECCQAADK [model peptide from tryptic digest of model protein 6]”, for which the tR exp under setting [3] is listed as 19.31 min. Under setting [2], DGWKVCLGKVGSMDAHKVVAAIETASKKSG registered a tR exp of 37.72 min.

With DGITDVL, the tR exp under setting [2] was 93.5 min. GQEQLIPPLIL registered a tR exp under setting [2] of 81.34 min. For AQLSEKKGADGYL, the tR exp under setting [2] amounted to 26.46 min.

On to EGTVIKELIGAGQLDEK, for which, under setting [1], the tR exp was 29.49 min. For ELSASMG, the tR exp under setting [2] was 18.33 min. Take “HIIVACEGNPYVPVHFDASV [model peptide from tryptic digest of model protein 7]”: under setting [3], the tR exp was found to be 32.15 min. On to NIAEMVK, for which the tR exp under setting [1] is 14.25 min. Under setting [2], LAAGISTI displayed a tR exp of 92.62 min. The substance “YPNCAYK [model peptide from tryptic digest of model protein 7]” came in with a tR exp under setting [3] of 16.78 min. In the case of EPIQSFFQID, under setting [2], the tR exp was determined as 51.92 min.

Substance QDIPIEARMNEIVHSLK came in with a tR exp under setting [1] of 29.33 min. Consider EAEELIPNVTTAAVK, for which, under setting [1], the tR exp was 29.18 min. Substance GIIAAYG gave a tR exp under setting [2] of 89.29 min. “NVACK [test peptide from tryptic digest of model protein 7]” yielded a tR exp under setting [4] of 8.38 min. As to “CCAAADPHECYAK [model peptide from tryptic digest of model protein 6]”, under setting [3], the tR exp came out at 16.98 min. With IHTLEHLLAFTI, the tR exp under setting [2] is listed as 81.04 min. SGETEDSTIADIAVATNAGQIK showed a tR exp under setting [1] of 30.05 min. “NECFLQHK [model peptide from tryptic digest of model protein 6]” returned a tR exp under setting [3] of 19.67 min. GHNPGQPEPLSGSK yielded a tR exp under setting [1] of 17.05 min. As to VVVSVNTDQDQAQAQSQDGED, the tR exp under setting [1] was found to be 19.37 min. Under setting [4], “ETCFAEEGKK [test peptide from tryptic digest of model protein 6]” had a tR exp of 16.58 min. Substance ELQEKFLIPAVEQKK displayed a tR exp under setting [1] of 29.27 min.

With “VHTECCHGDLLECADDRADLAK [model peptide from tryptic digest of model protein 6]”, the tR exp under setting [3] worked out at 24.98 min. Under setting [1], DRVFIAPVGGGPR showed a tR exp of 29.82 min. The same measure, in the same setting: the figure for LALDLESKK is 18.01 min. Same read-out and setting: with SHTGKAAVLNR the figure was 24.54 min. As for KIDKSIFPGIQGGPLMH, under setting [2], the tR exp came to 12.03 min.

Under setting [2], PQTPVP registered a tR exp of 80.37 min.

Substance “YICENQDSISSK [model peptide from tryptic digest of model protein 6]” came in with a tR exp under setting [3] of 18.06 min. Consider TGALIVYTSADSVLQIAAHEEVVPLEE, for which the tR exp under setting [2] turned out to be 52.12 min. Under setting [3], “TCVADESAENCDK [model peptide from tryptic digest of model protein 6]” returned a tR exp of 15.32 min. With DIMSPSR, the tR exp under setting [1] is given as 14.30 min.

For LIDKHKKYVYHRINK, the tR exp under setting [1] worked out at 29.00 min.

Values taken from article PMC2801521, “Correctness of Protein Identifications of Bacillus subtilis Proteome with the Indication on Potential False Positive Peptides Supported by Predictions of Their Retention Times” (Journal of Biomedicine and Biotechnology, 2009).
